For one molecule, MIC results are on record in ChEMBL document CHEMBL1144963, “Polyacylated neohesperidosides from Geranium caespitosum: bacterial multidrug resistance pump inhibitors” (2003).

Type in all cases: functional
For assay [1], the system named is Priestia megaterium. In words: Antimicrobial activity against Bacillus megaterium in combination with Norfloxacin and 10 ug/mL of compound 4 (alone MIC= 1 ug/mL).
The test system of assay [2] is Staphylococcus aureus. In words: Antimicrobial activity against Staphylococcus aureus in combination with Ciprofloxacin and 10 ug/mL of compound 4 (alone MIC= 0.5 ug/mL).
For assay [3], the system named is Bacillus subtilis. In words: Antimicrobial activity against Bacillus subtilis in combination with Berberine and 10 ug/mL of compound 4 (alone MIC= 500 ug/mL).
For assay [4], the system named is Staphylococcus aureus. The assay can be described thus: Antimicrobial activity against NorA Staphylococcus aureus in combination with Ciprofloxacin and 10 ug/mL of compound 4 (alone MIC= 0.2 ug/mL).
In assay [5] the test system is Priestia megaterium. In words: Antimicrobial activity against Bacillus megaterium in combination with Ciprofloxacin and 10 ug/mL of compound 4 (alone MIC= 0.8 ug/mL).
Assay [6] concerns Bacillus subtilis. The assay can be described thus: Antimicrobial activity against Bacillus subtilis in combination with Norfloxacin and 10 ug/mL of compound 4 (alone MIC= 1 ug/mL).
The subject of assay [7] is Staphylococcus aureus. The assay can be described thus: Antimicrobial activity against NorA Staphylococcus aureus in combination with Rhein and 10 ug/mL of compound 4 (alone MIC= 4 ug/mL).
Assay [8] deals with Staphylococcus aureus. The assay can be described thus: Antimicrobial activity against NorA Staphylococcus aureus in combination with Berberine and 10 ug/mL of compound 4 (alone MIC= 64 ug/mL).
The subject of assay [9] is Priestia megaterium. The assay can be described thus: Antimicrobial activity against Bacillus megaterium in combination with Berberine and 10 ug/mL of compound 4 (alone MIC= 125 ug/mL).
In assay [10] the test system is Bacillus subtilis. In words: Antimicrobial activity against Bacillus subtilis in combination with Rhein and 10 ug/mL of compound 4 (alone MIC= 16 ug/mL).
For assay [11], the system named is Staphylococcus aureus. The assay can be described thus: Antimicrobial activity against Staphylococcus aureus in combination with Norfloxacin and 10 ug/mL of compound 4 (alone MIC= 1 ug/mL).
For assay [12], the system named is Staphylococcus aureus. The assay can be described thus: Antimicrobial activity against Staphylococcus aureus in combination with Rhein and 10 ug/mL of compound 4 (alone MIC= 4 ug/mL).
Assay [13] concerns Staphylococcus aureus. In words: Antimicrobial activity against NorA Staphylococcus aureus in combination with Norfloxacin and 10 ug/mL of compound 4 (alone MIC= 0.4 ug/mL).
Assay [14] has as its system Priestia megaterium. The assay can be described thus: Antimicrobial activity against Bacillus megaterium in combination with Rhein and 10 ug/mL of compound 4 (alone MIC= 4 ug/mL).
The test system of assay [15] is Bacillus subtilis. The assay can be described thus: Antimicrobial activity against Bacillus subtilis in combination with Ciprofloxacin and 10 ug/mL of compound 4 (alone MIC= 0.8 ug/mL).
Assay [16] relates to Staphylococcus aureus. In words: Antimicrobial activity against Staphylococcus aureus in combination with Berberine and 10 ug/mL of compound 4 (alone MIC= 500 ug/mL).

For orientation: MIC means the lowest concentration found to suppress growth. As to `CCCCOC1OC(COC(=O)C(C)C)C(OC(=O)C(C)C)C(O)[C@H]1O[C@@H]1OC(C)C(OC(=O)C(C)C)C(OC(C)=O)C1OC(=O)CCCC` (stereo partly specified), the MIC in the assay with Priestia megaterium [1] stood at 0.2 µg/mL; with Staphylococcus aureus [2], 0.1 µg/mL; in the assay with Bacillus subtilis [3], 125 µg/mL; with Staphylococcus aureus [4] it was 0.1 µg/mL; in the assay on Priestia megaterium [5], 0.1 µg/mL; with Bacillus subtilis [6] it was 0.2 µg/mL. Also, the minimum inhibitory concentration (MIC) in the assay on Staphylococcus aureus [7] is 1 µg/mL; in the assay on Staphylococcus aureus [8], 1.56 µg/mL; in the assay with Priestia megaterium [9] it was 6.25 µg/mL; in the assay on Bacillus subtilis [10], 4 µg/mL; with Staphylococcus aureus [11] it was 0.2 µg/mL; in the assay with Staphylococcus aureus [12], 1 µg/mL. Further, the minimal inhibitory concentration (MIC) in the assay with Staphylococcus aureus [13] stood at 0.1 µg/mL; in the assay on Priestia megaterium [14], 1 µg/mL; with Bacillus subtilis [15], 0.1 µg/mL; in the assay with Staphylococcus aureus [16], 3.12 µg/mL.
